The series can be described thus: xn = mol fraction of the nth substance listed. To be noted: 298 K, 101 kPa.

Usually viscosity stands for the internal friction of a fluid under shear. Read a high viscosity as sluggish flow. Regarding `O` + CC[NH3+].O=[N+]([O-])[O-], the viscosity (x1 = 1) stood at 0.89 mPa·s.

`CCCC[NH3+].O=[N+]([O-])[O-]` + O: the viscosity (x2 = 0.112) was 69.8 mPa·s; the viscosity (x2 = 0.2) came out at 49.5 mPa·s; the viscosity (x2 = 0.397) was found to be 23.17 mPa·s; the viscosity (x2 = 0.494) came out at 15.53 mPa·s; the viscosity (x2 = 0.596) was 10.22 mPa·s; the viscosity (x2 = 0.698) is reported as 6.54 mPa·s. For the same compound, the viscosity (x2 = 0.95) was 1.53 mPa·s.

With `CC[NH3+].O=[N+]([O-])[O-]` + O, the viscosity by setting is: (x2 = 0) 37.5 mPa·s; (x2 = 0.1) 27.33 mPa·s; (x2 = 0.198) 19.84 mPa·s; (x2 = 0.294) 14.51 mPa·s; (x2 = 0.394) 10.37 mPa·s; (x2 = 0.5) 7.16 mPa·s. Further, the viscosity runs as follows: (x2 = 0.6) 4.98 mPa·s; (x2 = 0.799) 2.27 mPa·s; (x2 = 0.9) 1.47 mPa·s.

The values are drawn from a compilation of properties of binary mixtures (doi:10.1016/j.molliq.2021.115610).
